In one assay the target is T1, human factor XIa (Homo sapiens, UniProt P03951).
T1 construct: purchased Kordia
Kind of assay: Measurement of FXIa inhibition (fluorogenic peptide substrate Boc-Glu(OBzl)-Ala-Arg-AMC). It is filed as biochemical. The protocol:
a.1) Measurement of FXIa Inhibition
The factor XIa inhibition of the substances according to the invention is determined using a biochemical test system which utilizes the reaction of a peptidic factor XIa substrate to determine the enzymatic activity of human factor XIa. Here, factor XIa cleaves from the peptic factor XIa substrate the C-terminal aminomethylcoumarin (AMC), the fluorescence of which is measured. The determinations are carried out in microtitre plates.
In each case 1 μl of the diluted substance solutions is placed into the wells of white microtitre plates from Greiner (384 wells). […] After 15 min of incubation, the enzyme reaction is started by addition of 20 μl of the factor XIa substrate Boc-Glu(OBzl)-Ala-Arg-AMC dissolved in assay buffer (10 μM in assay buffer) from Bachem, the mixture is incubated at room temperature (22° C.) for 30 min and fluorescence is then measured (excitation: 360 nm, emission: 460 nm). The measured emissions of the test batches with test substance are compared to those of control batches without test substance (only dimethyl sulphoxide instead of test substance in dimethyl sulphoxide), and IC50 values are calculated from the concentration/activity relationships.

The next assay has as its system plasma. Kind of assay: Determination of anticoagulatory activity: activated partial thromboplastin time (aPTT) in plasma. The following applies: concentration of test substance which brings about a 1.5-fold extension of the aPTT, C.K. Prest kit, 37° C. The assay is classed as biochemical, human. On the procedure:
a.4) Determination of Anticoagulatory Activity
The anticoagulatory activity of the test substances is determined in vitro in human and animal plasma (for example mouse, rat, rabbit, pig and dog plasma). To this end, blood is drawn off in a mixing ratio of sodium citrate/blood of 1:9 using a 0.11 molar sodium citrate solution as receiver. Immediately after the blood has been drawn off, it is mixed thoroughly and centrifuged at about 4000 g for 15 minutes. The supernatant is pipetted off.
The activated partial thromboplastin time (aPTT) is determined in the presence of varying concentrations of test substance or the corresponding solvent using a commercial test kit (C.K. Prest from Diagnostica Stago). The test compounds are incubated with the plasma and the PTT reagent (cephalin, kaolin) at 37° C. for 3 minutes. Coagulation is then started by addition of a 25 mM aqueous calcium chloride solution, and the time when coagulation occurs is determined. The concentration of test substance which brings about a 1.5-fold extension of the aPTT is determined.

Setting [1] is: factor XIa from Kordia, 15 min preincubation, 30 min at 22° C., fluorescence, read-out: IC50.

The structures appear in SMILES notation. Where a name gives a salt, the structure may show the parent alone. Read-outs that look alike come from different tables or passages of the source.

T1 sequence (P03951 388-625 limits assumed): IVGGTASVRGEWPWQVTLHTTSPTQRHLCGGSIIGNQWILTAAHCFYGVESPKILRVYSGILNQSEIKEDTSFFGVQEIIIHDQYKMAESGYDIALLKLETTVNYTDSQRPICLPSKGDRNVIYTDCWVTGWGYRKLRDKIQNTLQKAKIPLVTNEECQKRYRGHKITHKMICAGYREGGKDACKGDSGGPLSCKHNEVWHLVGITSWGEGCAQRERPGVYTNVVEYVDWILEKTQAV
T1 sequence (P03951 19-387 partner limits assumed): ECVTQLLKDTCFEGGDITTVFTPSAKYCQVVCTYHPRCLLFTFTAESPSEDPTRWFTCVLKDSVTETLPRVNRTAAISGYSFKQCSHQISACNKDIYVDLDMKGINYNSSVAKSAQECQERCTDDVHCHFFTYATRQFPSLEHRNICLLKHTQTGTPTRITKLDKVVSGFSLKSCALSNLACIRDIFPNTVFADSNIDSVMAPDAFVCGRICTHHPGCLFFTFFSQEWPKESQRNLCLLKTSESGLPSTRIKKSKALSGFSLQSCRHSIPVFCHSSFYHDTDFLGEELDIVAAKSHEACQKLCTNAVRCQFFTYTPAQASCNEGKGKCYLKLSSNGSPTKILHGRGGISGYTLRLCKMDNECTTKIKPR

As to `CN(C)C1CCC(NS(=O)(=O)c2ccc(-c3ccc(C[C@H](NC(=O)[C@H]4CC[C@H](CN)CC4)C(=O)Nc4ccc5[nH]c(=O)[nH]c5c4)cc3)c(C(F)(F)F)c2)CC1` (stereo partly drawn) [Example 28, trans-4-(Aminomethyl)-N-{(2S)-3-[4′-{[4-(dimethylamino)cyclohexyl]sulphamoyl}-2′-(trifluoromethyl)biphenyl-4-yl]-1-oxo-1-[(2-oxo-2,3-dihydro-1H-benzimidazol-5-yl)amino]propan-2-yl}cyclohexanecarboxamide hydrochloride], the IC50 (as a rule, the concentration at which inhibition is half-maximal) on human factor XIa (setting [1]) amounted to 5.2 nM. Further, in the assay with plasma, the “Concentration for 1.5-fold aPTT extension” value stood at 0.06 µmol/L.
For the molecule `NC[C@H]1CC[C@H](C(=O)N[C@@H](Cc2ccc(-c3ccc(N4CCOCC4=O)cc3)cc2)C(=O)Nc2ccc(-c3nn[nH]n3)cc2)CC1` [Example 25, trans-4-(Aminomethyl)-N-[(2S)-1-oxo-3-[4′-(3-oxomorpholin-4-yl)biphenyl-4-yl]-1-{[4-(2H-tetrazol-5-yl)phenyl]amino}propan-2-yl]cyclohexanecarboxamide hydrochloride], on human factor XIa (setting [1]), the concentration for half-maximal inhibition (IC50) stood at 2.5 nM. The “Concentration for 1.5-fold aPTT extension” value in the assay with plasma is 0.36 µmol/L.
Regarding `NC[C@H]1CC[C@H](C(=O)N[C@@H](Cc2ccc(-c3ccc(S(=O)(=O)NCCO)cc3)cc2)C(=O)Nc2ccc(-c3nnc(Cl)[nH]3)cc2)CC1` [Example 19, trans-4-(Aminomethyl)-N-[(2S)-1-{[4-(5-chloro-4H-1,2,4-triazol-3-yl)phenyl]amino}-3-{4′-[(2-hydroxyethyl)sulphamoyl]biphenyl-4-yl}-1-oxopropan-2-yl]cyclohexanecarboxamide hydrochloride], at human factor XIa (setting [1]), the IC50 came out at 2.3 nM. The “Concentration for 1.5-fold aPTT extension” value with plasma came to 0.16 µmol/L.
Take `CNS(=O)(=O)c1ccc(-c2ccc(C[C@H](NC(=O)[C@H]3CC[C@H](CN)CC3)C(=O)Nc3ccc4c(=O)[nH][nH]c4c3)cc2)c(C)c1` [Example 18, trans-4-(Aminomethyl)-N-{(2S)-3-[2′-methyl-4′-(methylsulphamoyl)biphenyl-4-yl]-1-oxo-1-[(3-oxo-2,3-dihydro-1H-indazol-6-yl)amino]propan-2-yl}cyclohexanecarboxamide hydrochloride]: the IC50 at human factor XIa (setting [1]) was 5.4 nM. In the assay on plasma, the “Concentration for 1.5-fold aPTT extension” value is 0.13 µmol/L.
Consider `Cc1cc(S(=O)(=O)N(C)C)ccc1-c1ccc(C[C@H](NC(=O)[C@H]2CC[C@H](CN)CC2)C(=O)Nc2ccc3c(=O)[nH][nH]c3c2)cc1` [Example 13, trans-4-(Aminomethyl)-N-{(2S)-3-[4′-(dimethylsulphamoyl)-2′-methylbiphenyl-4-yl]-1-oxo-1-[(3-oxo-2,3-dihydro-1H-indazol-6-yl)amino]propan-2-yl}cyclohexanecarboxamide hydrochloride], for which, at human factor XIa (setting [1]), the IC50 stood at 3.1 nM. In addition, in the assay with plasma, the “Concentration for 1.5-fold aPTT extension” value turned out to be 0.07 µmol/L.
As for `Cc1cc(S(=O)(=O)NC(C)C)ccc1-c1ccc(C[C@H](NC(=O)[C@H]2CC[C@H](CN)CC2)C(=O)Nc2ccc3c(=O)[nH][nH]c3c2)cc1` [Example 14, trans-4-(Aminomethyl)-N-{(2S)-3-[4′-(isopropylsulphamoyl)-2′-methylbiphenyl-4-yl]-1-oxo-1-[(3-oxo-2,3-dihydro-1H-indazol-6-yl)amino]propan-2-yl}cyclohexanecarboxamide hydrochloride], the IC50 on human factor XIa (setting [1]) turned out to be 3.2 nM.
Take `Cc1cc(S(=O)(=O)NC2CCNC(C)C2)ccc1-c1ccc(C[C@H](NC(=O)[C@H]2CC[C@H](CN)CC2)C(=O)Nc2ccc(-c3nn[nH]n3)cc2)cc1` (stereo partly drawn) [Example 10, trans-4-(Aminomethyl)-N-[(2S)-3-(2′-methyl-4′-{[(2-methylpiperidin-4-yl]sulphamoyl}biphenyl-4-yl)-1-oxo-1-{[4-(2H-tetrazol-5-yl)phenyl]amino}propan-2-yl]cyclohexanecarboxamide hydrochloride]: the IC50 on human factor XIa (setting [1]) turned out to be 1.1 nM. In addition, the “Concentration for 1.5-fold aPTT extension” value in the assay on plasma worked out at 0.1 µmol/L.
Take `CS(=O)(=O)c1ccc(-c2ccc(C[C@H](NC(=O)[C@H]3CC[C@H](CN)CC3)C(=O)Nc3ccc(-c4nn[nH]n4)cc3)cc2)c(C(F)(F)F)c1` [Example 21, trans-4-(Aminomethyl)-N-[(2S)-3-[4′-(methylsulphonyl)-2′-(trifluoromethyl)biphenyl-4-yl]-1-oxo-1-{[4-(2H-tetrazol-5-yl)phenyl]amino}propan-2-yl]cyclohexanecarboxamide hydrochloride]: the IC50 on human factor XIa (setting [1]) worked out at 0.9 nM. Further, the “Concentration for 1.5-fold aPTT extension” value with plasma was determined as 0.23 µmol/L.
For the molecule `NC[C@H]1CC[C@H](C(=O)N[C@@H](Cc2ccc(-c3ccc(S(=O)(=O)NC4CCNCC4)cc3C(F)(F)F)cc2)C(=O)Nc2ccc(-c3nn[nH]n3)cc2)CC1` [Example 8, trans-4-(Aminomethyl)-N-[(2S)-1-oxo-3-[4′-(piperidin-4-ylsulphamoyl)-2′-(trifluoromethyl)biphenyl-4-yl]-1-{[4-(2H-tetrazol-5-yl)phenyl]amino}propan-2-yl]cyclohexanecarboxamide hydrochloride], the IC50 on human factor XIa (setting [1]) is 1 nM. Also, the “Concentration for 1.5-fold aPTT extension” value in the assay with plasma was found to be 0.08 µmol/L.
On the same counts, the results for `COC(=O)c1ccc(-c2ccc(C[C@H](NC(=O)[C@H]3CC[C@H](CN)CC3)C(=O)Nc3ccc(-c4nn[nH]n4)cc3)cc2)c(Cl)c1.Cl` [Example 11, Methyl 4′-[(2S)-2-({[trans-4-(aminomethyl)cyclohexyl]carbonyl}amino)-3-oxo-3-{[4-(2H-tetrazol-5-yl)phenyl]amino}propyl]-2-chlorobiphenyl-4-carboxylate hydrochloride] are 1.9 nM and 0.49 µmol/L.
`COCCOc1ccc(-c2ccc(C[C@H](NC(=O)[C@H]3CC[C@H](CN)CC3)C(=O)Nc3ccc(-c4nn[nH]n4)cc3)cc2)cc1` [Example 3, trans-4-(Aminomethyl)-N-[(2S)-3-[4′-(2-methoxyethoxy)biphenyl-4-yl]-1-oxo-1-{[4-(2H-tetrazol-5-yl)phenyl]amino}propan-2-yl]cyclohexanecarboxamide hydrochloride]: on human factor XIa (setting [1]), the IC50 was determined as 8.1 nM.
On human factor XIa, `NC[C@H]1CC[C@H](C(=O)N[C@@H](Cc2ccc(-c3ccc(N4CCOCC4)cc3)cc2)C(=O)Nc2ccc(-c3nn[nH]n3)cc2)CC1` [Example 5, trans-4-(Aminomethyl)-N-[(2S)-3-[4′-(morpholin-4-yl)biphenyl-4-yl]-1-oxo-1-{[4-(2H-tetrazol-5-yl)phenyl]amino}propan-2-yl]cyclohexanecarboxamide hydrochloride] gave an IC50 of 5.7 nM.
For the molecule `COC(=O)c1ccc(-c2ccc(C[C@H](NC(=O)[C@H]3CC[C@H](CN)CC3)C(=O)Nc3ccc(-c4nn[nH]n4)cc3)cc2)cc1` [Example 7, Methyl 4′-[(2S)-2-({[trans-4-(aminomethyl)cyclohexyl]carbonyl}amino)-3-oxo-3-{[4-(2H-tetrazol-5-yl)phenyl]amino}propyl]biphenyl-4-carboxylic acid hydrochloride], on human factor XIa (setting [1]), the IC50 worked out at 3.6 nM.
Consider `NC[C@H]1CC[C@H](C(=O)N[C@@H](Cc2ccc(-c3ccc(N4CCNCC4)cc3)cc2)C(=O)Nc2ccc(-c3nn[nH]n3)cc2)CC1` [Example 2, trans-4-(Aminomethyl)-N-[(2S)-1-oxo-3-[4′-(piperazin-1-yl)biphenyl-4-yl]-1-{[4-(2H-tetrazol-5-yl)phenyl]amino}propan-2-yl]cyclohexanecarboxamide hydrochloride], for which the IC50 on human factor XIa (setting [1]) stood at 4.3 nM.
In the case of `NC[C@H]1CC[C@H](C(=O)N[C@@H](Cc2ccc(-c3ccc(N4CCNCC4)cc3)cc2)C(=O)Nc2ccc(-c3noc(=O)[nH]3)cc2)CC1` [Example 6, trans-4-(Aminomethyl)-N-{(2S)-1-oxo-1-{[4-(5-oxo-4,5-dihydro-1,2,4-oxadiazol-3-yl)phenyl]amino}-3-[4′-(piperazin-1-yl)biphenyl-4-yl]propan-2-yl}cyclohexanecarboxamide hydrochloride], the IC50 at human factor XIa (setting [1]) was 24 nM.
Still for that read-out and setting: as for `CN1CCN(c2ccc(-c3ccc(C[C@H](NC(=O)[C@H]4CC[C@H](CN)CC4)C(=O)Nc4ccc(-c5nn[nH]n5)cc4)cc3)cc2)CC1` [Example 4, trans-4-(Aminomethyl)-N-[(2S)-3-[4′-(4-methylpiperazin-1-yl)biphenyl-4-yl]-1-oxo-1-{[4-(2H-tetrazol-5-yl)phenyl]amino}propan-2-yl]cyclohexanecarboxamide hydrochloride], the figure is 18 nM; as for `Cc1cc(NC(=O)CNC(=O)CNC(=O)CN)ccc1-c1ccc(C[C@H](NC(=O)[C@H]2CC[C@H](CN)CC2)C(=O)Nc2ccc(-c3nn[nH]n3)cc2)cc1` [Example 9, Glycylglycyl-N-{4′-[(2S)-2-({[trans-4-(aminomethyl)cyclohexyl]carbonyl}amino)-3-oxo-3-{[4-(2H-tetrazol-5-yl)phenyl]amino}propyl]-2-methylbiphenyl-4-yl}glycinamide hydrochloride], 8.4 nM.

The record behind these values is US20160237044A1, “SUBSTITUTED PHENYLALANINE DERIVATIVES” (BAYER PHARMA AKTIENGESELLSCHAFT, priority 2013, published 2016).
